Measurements as given in patent US20220396565A1 (Hoffmann-La Roche Inc., priority 2020, published 2022).
Where a name gives a salt, the structure may show the parent alone.

What follows are compounds tested on Acinetobacter baumannii ATCC17961 (assay: Antimicrobial susceptibility testing: 90% growth inhibitory concentration (IC90) determination, Iso-Sensitest broth). Details: Acinetobacter baumannii, ATCC17961, 90% growth inhibitory concentration, Acinetobacter baumannii ATCC17961, Iso-Sensitest broth; read-out: ATCC 17961 IC90.
Assay type: cell-based
Procedure, shortened: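 Growth at OD600 was monitored every 20 min for 16 h at 35±2 °C, with bacteria inoculated at ~5×10^(5) CFU/ml into Iso-Sensitest medium. Compounds were tested as 10-point twofold dilutions (e.g. 10–0.02 μM final). The 90% inhibitory concentration comes from the log-phase growth.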

COc1ccc(-c2cnc(C(=O)Nc3ccc(C(=O)N4CCC(S(=O)(=O)N5CCNCC5)CC4)c(Cl)c3)n2C)c(F)c1F [Example 21, N-(3-chloro-4-(4-(piperazin-1-ylsulfonyl)piperidine-1-carbonyl)phenyl)-5-(2,3-difluoro-4-methoxyphenyl)-1-methyl-1H-imidazole-2-carboxamide formate] and COc1ccc(-c2cnc(C(=O)Nc3ccc(C(=O)N4CCN(S(=O)(=O)C5CCNCC5)CC4)c(Cl)c3)n2C)c(F)c1F [Example 216, N-(3-chloro-4-(4-(piperidin-4-ylsulfonyl)piperazine-1-carbonyl)phenyl)-5-(2,3-difluoro-4-methoxyphenyl)-1-methyl-1H-imidazole-2-carboxamide formate] are within 1.5-fold of each other in IC90: 100 nM for the first, 120 nM for the second.

COc1ccc(-c2cnc(C(=O)Nc3ccc(C(=O)N4CCN(C(=O)C5CCNCC5)CC4)c(Cl)c3)n2C)c(F)c1OC [Example 257, N-[3-chloro-4-[4-(piperidine-4-carbonyl)piperazine-1-carbonyl]phenyl]-5-(2-fluoro-3,4-dimethoxy-phenyl)-1-methyl-imidazole-2-carboxamide formate] and Cn1c(-c2ccc(F)c(F)c2F)cnc1C(=O)Nc1ccc(C(=O)N2CCN(C(=O)C3CCNCC3)CC2)c(Cl)c1 [Example 191, N-[3-chloro-4-[4-(piperidine-4-carbonyl)piperazine-1-carbonyl]phenyl]-1-methyl-5-(2,3,4-trifluorophenyl)imidazole-2-carboxamide formate] are the same in IC90: 230 nM for the first, 230 nM for the second.

Cn1c(-c2ccc(OC(F)F)c(F)c2F)cnc1C(=O)Nc1ccc(C(=O)N2CCC(C(=O)NC[C@@H]3CCNC3)CC2)c(Cl)c1 [Example 47, 1-[2-chloro-4-[[5-[4-(difluoromethoxy)-2,3-difluoro-phenyl]-1-methyl-imidazole-2-carbonyl]amino]benzoyl]-N-[[(3R)-pyrrolidin-3-yl]methyl]piperidine-4-carboxamide trifluoroacetate] and COc1ccc(-c2cnc(C(=O)Nc3ccc(C(=O)N4CCC(C(=O)NC[C@@H]5CCNC5)CC4)c(Cl)c3)n2C)c(F)c1F [Example 55, 1-[2-chloro-4-[[5-(2,3-difluoro-4-methoxy-phenyl)-1-methyl-imidazole-2-carbonyl]amino]benzoyl]-N-[[(3R)-pyrrolidin-3-yl]methyl]piperidine-4-carboxamide formate] are within 1.5-fold of each other in IC90: 40 nM for the first, 50 nM for the second.

Going from CN1CCC(NNC(=O)C2CCN(C(=O)c3ccc(NC(=O)c4ncc(-c5ccc(OCF)c(F)c5F)n4C)cc3Cl)CC2)CC1 [Example 52, N-[3-chloro-4-[4-[[(1-methyl-4-piperidyl)amino]carbamoyl]piperidine-1-carbonyl]phenyl]-5-[2,3-difluoro-4-(fluoromethoxy)phenyl]-1-methyl-imidazole-2-carboxamide trifluoroacetate] to Cn1c(-c2ccc(OCF)c(F)c2F)cnc1C(=O)Nc1ccc(C(=O)N2CCC(C(=O)N[C@H]3CNC[C@H]3F)CC2)c(Cl)c1 [Example 51, 1-[2-chloro-4-[[5-[2,3-difluoro-4-(fluoromethoxy)phenyl]-1-methyl-imidazole-2-carbonyl]amino]benzoyl]-N-[(3S,4R)-4-fluoropyrrolidin-3-yl]piperidine-4-carboxamide trifluoroacetate], the IC90 falls from 130 nM to 30 nM (4.3-fold).

CC[C@@]1(O)CN[C@H](C(=O)N2CCN(C(=O)c3ccc(NC(=O)c4ncc(-c5ccc(OC)c(F)c5F)n4C)cc3Cl)CC2)C1 [Example 233, N-[3-chloro-4-[4-[(2S,4S)-4-ethyl-4-hydroxy-pyrrolidine-2-carbonyl]piperazine-1-carbonyl]phenyl]-5-(2,3-difluoro-4-methoxy-phenyl)-1-methyl-imidazole-2-carboxamide formate] and COc1ccc(-c2cnc(C(=O)Nc3ccc(C(=O)N4CCN(C(=O)C5CC(C(N)=O)C5)CC4)c(Cl)c3)n2C)c(F)c1F (stereo not drawn) [Example 280, N-(4-(4-(3-carbamoylcyclobutane-1-carbonyl)piperazine-1-carbonyl)-3-chlorophenyl)-5-(2,3-difluoro-4-methoxyphenyl)-1-methyl-1H-imidazole-2-carboxamide] are within 1.5-fold of each other in IC90: 130 nM for the first, 100 nM for the second.

First: Cn1c(-c2ccc(CC#N)cc2F)cnc1C(=O)Nc1ccc(C(=O)N2CCN(C(=O)C3CCNCC3)CC2)c(Cl)c1 [Example 256, N-[3-chloro-4-[4-(piperidine-4-carbonyl)piperazine-1-carbonyl]phenyl]-5-[4-(cyanomethyl)-2-fluoro-phenyl]-1-methyl-imidazole-2-carboxamide formate]
Second: COc1ccc(-c2cnc(C(=O)Nc3ccc(C(=O)N4CCN(C(=O)[C@H]5CC[C@@H](N)C5)CC4)c(Cl)c3)n2C)c(F)c1F [Example 108, N-[4-[4-[(1S,3R)-3-aminocyclopentane-carbonyl]piperazine-1-carbonyl]-3-chloro-phenyl]-5-(2,3-difluoro-4-methoxy-phenyl)-1-methyl-imidazole-2-carboxamide; formate]
The IC90 of the first is 220-fold higher: 8700 nM for the first, 40 nM for the second.

Compared with COc1ccc(-c2cnc(C(=O)Nc3ccc(C(=O)N4CCN(C(=O)N[C@H]5CNC[C@@H]5O)CC4)c(C)c3)n2C)c(F)c1F [Example 285, 4-[4-[[5-(2,3-difluoro-4-methoxy-phenyl)-1-methyl-imidazole-2-carbonyl]amino]-2-methyl-benzoyl]-N-[(3S,4S)-4-hydroxypyrrolidin-3-yl]piperazine-1-carboxamide formate], COc1ccc(-c2cnc(C(=O)Nc3ccc(C(=O)N4CCN(C(=O)[C@H]5[C@@H]6CNC[C@@H]65)CC4)c(Cl)c3)n2C)c(F)c1F [Example 184, N-[4-[4-[(1R,5S)-3-azabicyclo[3.1.0]hexane-6-carbonyl]piperazine-1-carbonyl]-3-chloro-phenyl]-5-(2,3-difluoro-4-methoxy-phenyl)-1-methyl-imidazole-2-carboxamide trifluoroacetate] is 5-fold lower in IC90: 100 nM for the first, 20 nM for the second.

Going from CN(C)CC(=O)N1CCN(C(=O)c2ccc(NC(=O)c3ncc(-c4ccc(OCF)cc4F)n3C)cc2Cl)CC1 [Example 222, N-(3-chloro-4-(4-(dimethylglycyl)piperazine-1-carbonyl)phenyl)-5-(2-fluoro-4-(fluoromethoxy)phenyl)-1-methyl-1H-imidazole-2-carboxamide] to COc1ccc(-c2cnc(C(=O)Nc3ccc(C(=O)N4CCN(C(=O)CCCNC(=N)N)CC4)c(Cl)c3)n2C)c(F)c1F [Example 135, N-[3-chloro-4-[4-(4-guanidinobutanoyl)piperazine-1-carbonyl]phenyl]-5-(2,3-difluoro-4-methoxy-phenyl)-1-methyl-imidazole-2-carboxamide formate], the IC90 falls from 90 nM to 30 nM (3-fold).

Going from Cn1c(-c2ccc(OC(F)F)c(F)c2F)cnc1C(=O)Nc1ccc(C(=O)N2CCN(C(=O)[C@@H]3C[C@@H](O)CN3)CC2)c(Cl)c1 [Example 163, N-[3-chloro-4-[4-[(2S,4R)-4-hydroxypyrrolidine-2-carbonyl]piperazine-1-carbonyl]phenyl]-5-[4-(difluoromethoxy)-2,3-difluoro-phenyl]-1-methyl-imidazole-2-carboxamide formate] to COc1ccc(-c2cnc(C(=O)Nc3ccc(C(=O)N4CC5(C4)CN(C(=O)[C@@H]4C[C@@H](O)CN4)C5)c(Cl)c3)n2C)c(F)c1F [Example 112, N-[3-chloro-4-[2-[(2S,4R)-4-hydroxypyrrolidine-2-carbonyl]-2,6-diazaspiro[3.3]heptane-6-carbonyl]phenyl]-5-(2,3-difluoro-4-methoxy-phenyl)-1-methyl-imidazole-2-carboxamide], the IC90 rises from 40 nM to 230 nM (5.8-fold).

COc1ccc(-c2cnc(C(=O)Nc3ccc(C(=O)N4CCN(C(=O)C5(O)CCNCC5)CC4)c(Cl)c3)n2C)c(F)c1F [Example 166, N-[3-chloro-4-[4-(4-hydroxypiperidine-4-carbonyl)piperazine-1-carbonyl]phenyl]-5-(2,3-difluoro-4-methoxy-phenyl)-1-methyl-imidazole-2-carboxamide formate] and Cn1c(-c2ccc(OCF)c(F)c2F)cnc1C(=O)Nc1ccc(C(=O)N2CCN(C(=O)CC3(O)CCNCC3)CC2)c(Cl)c1 [Example 164, N-[3-chloro-4-[4-[2-(4-hydroxy-4-piperidyl)acetyl]piperazine-1-carbonyl]phenyl]-5-[2,3-difluoro-4-(fluoromethoxy)phenyl]-1-methyl-imidazole-2-carboxamide formate] are within 1.5-fold of each other in IC90: 50 nM for the first, 70 nM for the second.

Same assay, conditions: Acinetobacter baumannii, ATCC17961, read-out: ATCC 17961 IC90

Going from Cn1c(-c2ccc(OCC#N)c(F)c2F)cnc1C(=O)Nc1ccc(C(=O)N2CCC(C(=O)NCC(O)CN)CC2)c(Cl)c1 (stereo not drawn) [Example 84, N-(3-amino-2-hydroxypropyl)-1-(2-chloro-4-(5-(4-(cyanomethoxy)-2,3-difluorophenyl)-1-methyl-1H-imidazole-2-carboxamido)benzoyl) piperidine-4-carboxamide 2,2,2-trifluoroacetate] to Cn1c(-c2ccc(OCF)c(F)c2F)cnc1C(=O)Nc1ccc(C(=O)N2CCC(C(=O)NCCN)CC2)c(Cl)c1 [Example 88, N-(2-aminoethyl)-1-(2-chloro-4-(5-(2,3-difluoro-4-(fluoromethoxy)phenyl)-1-methyl-1H-imidazole-2-carboxamido)benzoyl) piperidine-4-carboxamide 2,2,2-trifluoroacetate], the IC90 falls from 90 nM to 50 nM (1.8-fold).

Compared with COc1ccc(-c2cnc(C(=O)Nc3ccc(C(=O)N4CCC(NC(=O)CC5CCNC5)CC4)c(Cl)c3)n2C)c(F)c1F (stereo not drawn) [Example 11, N-[3-Chloro-4-[4-[(2-pyrrolidin-3-ylacetyl)amino]piperidine-1-carbonyl]phenyl]-5-(2,3-difluoro-4-methoxy-phenyl)-1-methyl-imidazole-2-carboxamide formate], COc1ccc(-c2cnc(C(=O)Nc3ccc(C(=O)N4CCC(C(=O)N5C[C@H](N)[C@@H](F)C5)CC4)c(Cl)c3)n2C)c(F)c1F [Example 37, N-[4-[4-[(3S,4S)-3-amino-4-fluoro-pyrrolidine-1-carbonyl]piperidine-1-carbonyl]-3-chloro-phenyl]-5-(2,3-difluoro-4-methoxy-phenyl)-1-methyl-imidazole-2-carboxamide trifluoroacetate] is 2.4-fold higher in IC90: 70 nM for the first, 170 nM for the second.
